Test results: publication PMC5253108 (European journal of medicinal chemistry, 2016)
Like-named read-outs stand apart in the source and are kept apart here.

Legend:
HepG2 liver cells = assay: In vitro cytotoxicity, Cell-Titer Glo viability, HepG2; assay type: cell-based; conditions: 48 hours
HEK293 kidney cells = assay type: cell-based; conditions: 48 hours, Cell-Titer Glo
[1] = tested on: BEAS2B lung epithelial cells; assay: In vitro cytotoxicity, Cell-Titer Glo viability, BEAS2B; assay type: cell-based; conditions: 48 hours
[2] = In vitro liver microsomal stability; assay type: in vitro ADME, mouse; conditions: for metabolically converted after one hour: corresponds to mouse liver microsome values of Table 1
Swiss Webster mice [3] = assay: Rotarod assay of sensorimotor coordination in mice; conditions: for sensorimotor impairment on rotarod: 40 mg/kg i.p., Swiss Webster mice, 10, 30 and 60 min
airway eosinophilia = conditions: cited from earlier work
Swiss Webster mice [4] = conditions: cited from earlier work
[5] = tested on: guinea pig tracheal rings; conditions: cited from earlier work
[6] = Pharmacokinetic study in mice; assay type: in vivo, mouse; conditions: after 5 mg/kg i.p. of 16, mouse blood
[7] = In vitro liver microsomal stability; assay type: in vitro ADME; conditions: human
[8] = Solubility in rotarod vehicle; conditions: 50% PBS, 40% propylene glycol, 10% DMSO; for 40 mg/kg i.p. dosing
[9] = Solubility at 10 µM in PBS with 1% DMSO; assay type: physicochemical; conditions: aqueous buffer, kinetic from dmso stock

Row | SMILES | Toxicity in HEPG2 (Liver) LD50 (HepG2 liver cells) | Toxicity in HEK293 (Kidney) LD50 (HEK293 kidney cells) | Toxicity in BEAS 2B (Lung) LD50 [1] | loss at 1 h in mouse liver microsomes [2] | sensorimotor impairment on rotarod (Swiss Webster mice [3]) | also measured
1 | [2H]C([2H])([2H])Oc1ccc2c(c1)C(=O)N1CCC[C@H]1c1c(C(=O)OCC)ncn1-2 [Compound 5a] | >400 µM | >400 µM | >400 µM | less than 20% | – | –
2 | CCOC(=O)c1ncn2c1[C@@H]1CCCN1C(=O)c1cc(O)ccc1-2 [Compound 6] | >400 µM | – | >400 µM | less than 20% | did not induce sensorimotor impairment | –
3 | [2H]C([2H])([2H])Oc1ccc2c(c1)C(=O)N1CCC[C@H]1c1c(C(=O)OC(C)(C)C)ncn1-2 [Compound 7a] | >400 µM | >100 µM | >200 µM | – | – | –
4 | CC(C)(C)OC(=O)c1ncn2c1[C@@H]1CCCN1C(=O)c1cc(O)ccc1-2 [Compound 8] | >400 µM | – | >400 µM | – | – | –
5 | COc1ccc2c(c1)C(=O)N1CCC[C@H]1c1c(C(=O)O)ncn1-2 [Compound 9, (S)-7-Methoxy-9-oxo-11,12,13,13a-tetrahydro-9H-benzo[e]imidazo[5,1-c]pyrrolo[1,2-a][1,4]di-azepine-1-carboxylic acid] | >400 µM | >400 µM | >400 µM | – | – | airway eosinophilia (airway eosinophilia): decreased airway eosinophilia; airway eosinophilia (airway eosinophilia; listed as XHE-III-74A): significantly reduced airway eosinophilia; CNS effects (Swiss Webster mice [4]): no CNS effects; airway muscle constriction caused by substance P [5]: significantly reduced airway muscle constriction; metabolite in blood samples [6]: not detected in any blood samples; remaining at 1 h ([7]; liver microsomes): < 80%
6 | [2H]C([2H])([2H])Oc1ccc2c(c1)C(=O)N1CCC[C@H]1c1c(C(=O)O)ncn1-2 [Compound 9a] | >400 µM | >400 µM | >400 µM | less than 20% | did not induce sensorimotor impairment | –
7 | COC(=O)c1ncn2c1[C@@H]1CCCN1C(=O)c1cc(OC)ccc1-2 [Compound 10, (S)-Methyl-7-methoxy-9-oxo-11,12,13,13a-tetrahydro-9H-benzo[e]imidazo[5,1-c]pyrrolo[1,2-a][1,4]diazepine-1-carboxylate] | >400 µM | >400 µM | >400 µM | – | did not induce any sensorimotor impairment | metabolically converted after one hour [2]: 30%
8 | [2H]C([2H])([2H])Oc1ccc2c(c1)C(=O)N1CCC[C@H]1c1c(C(=O)OC)ncn1-2 [Compound 10a] | >400 µM | >400 µM | >400 µM | less than 20% | most severe motor impairment | metabolically converted after one hour [2]: 15%
9 | COc1ccc2c(c1)C(=O)N1CCC[C@H]1c1c(C(=O)OCC(C)C)ncn1-2 [Compound 11, (S)-Isobutyl-7-methoxy-9-oxo-11,12,13,13a-tetrahydro-9H-benzo[e]imidazo[5,1-c]pyrrolo[1,2-a][1,4]diazepine-1-carboxylate] | >200 µM | >100 µM | >200 µM | – | – | remaining at 1 h ([7]; microsomes): < 80%; solubility in the vehicle [8]: not soluble in the vehicle
10 | [2H]C([2H])([2H])Oc1ccc2c(c1)C(=O)N1CCC[C@H]1c1c(C(=O)OCC(C)C)ncn1-2 [Compound 11a] | >200 µM | >100 µM | >200 µM | – | most severe motor impairment | remaining at 1 h ([7]; microsomes): < 80%
11 | COc1ccc2c(c1)C(=O)N1CCC[C@H]1c1c(C(=O)OC(C(F)(F)F)C(F)(F)F)ncn1-2 [Compound 12] | >400 µM | >200 µM | >400 µM | – | – | solubility [9]: < 10 µM; solubility in the vehicle [8]: not soluble in the vehicle
12 | [2H]C([2H])([2H])Oc1ccc2c(c1)C(=O)N1CCC[C@H]1c1c(C(=O)OC(C(F)(F)F)C(F)(F)F)ncn1-2 [Compound 12a] | >400 µM | >200 µM | >400 µM | – | – | remaining at 1 h ([7]; microsomes): < 80%; solubility in the vehicle [8]: not soluble in the vehicle
13 | CCSC(=O)c1ncn2c1[C@@H]1CCCN1C(=O)c1cc(OC)ccc1-2 [Compound 13] | >100 µM | >100 µM | >100 µM | – | – | solubility [9]: < 10 µM; solubility in the vehicle [8]: not soluble in the vehicle
14 | [2H]C([2H])([2H])Oc1ccc2c(c1)C(=O)N1CCC[C@H]1c1c(C(=O)SCC)ncn1-2 [Compound 13a] | >100 µM | >100 µM | >100 µM | – | – | solubility [9]: < 10 µM; solubility in the vehicle [8]: not soluble in the vehicle
15 | COc1ccc2c(c1)C(=O)N1CCC[C@H]1c1c(C(=O)SC(C)(C)C)ncn1-2 [Compound 14] | >100 µM | 18.8 ± 2.4 µM | >100 µM | – | – | solubility [9]: < 10 µM; solubility in the vehicle [8]: not soluble in the vehicle
16 | [2H]C([2H])([2H])Oc1ccc2c(c1)C(=O)N1CCC[C@H]1c1c(C(=O)SC(C)(C)C)ncn1-2 [Compound 14a] | >100 µM | 16.8 ± 2.0 µM | >100 µM | – | – | solubility [9]: < 10 µM; solubility in the vehicle [8]: not soluble in the vehicle
17 | CNC(=O)c1ncn2c1[C@@H]1CCCN1C(=O)c1cc(OC)ccc1-2 [Compound 15] | >400 µM | >100 µM | >400 µM | – | most severe motor impairment | –
18 | [2H]C([2H])([2H])Oc1ccc2c(c1)C(=O)N1CCC[C@H]1c1c(C(=O)NC)ncn1-2 [Compound 15a] | >400 µM | >100 µM | >400 µM | – | – | –
19 | [2H]C([2H])([2H])Oc1ccc2c(c1)C(=O)N1CCC[C@H]1c1c(C(=O)N(C)C)ncn1-2 [Compound 16a] | >400 µM | >400 µM | >400 µM | less than 20% | did not induce sensorimotor impairment | –
20 | CCNC(=O)c1ncn2c1[C@@H]1CCCN1C(=O)c1cc(OC)ccc1-2 [Compound 17] | >400 µM | >400 µM | >400 µM | – | – | –
21 | [2H]C([2H])([2H])Oc1ccc2c(c1)C(=O)N1CCC[C@H]1c1c(C(=O)NCC)ncn1-2 [Compound 17a] | >400 µM | – | – | less than 20% | did not induce sensorimotor impairment | –
22 | COc1ccc2c(c1)C(=O)N1CCC[C@H]1c1c(C(=O)NC(C)(C)C)ncn1-2 [Compound 18] | >400 µM | >200 µM | >400 µM | – | – | –
23 | [2H]C([2H])([2H])Oc1ccc2c(c1)C(=O)N1CCC[C@H]1c1c(C(=O)NC(C)(C)C)ncn1-2 [Compound 18a] | >400 µM | – | – | – | most severe motor impairment | –
24 | COc1ccc2c(c1)C(=O)N1CCC[C@H]1c1c(C(=O)NC3CC3)ncn1-2 [Compound 19] | >400 µM | >200 µM | >400 µM | less than 20% | – | toxicity in HEK293 cells (HEK293 kidney cells): some toxicity; remaining at 1 h ([7]; microsomes): < 80%
25 | [2H]C([2H])([2H])Oc1ccc2c(c1)C(=O)N1CCC[C@H]1c1c(C(=O)NC3CC3)ncn1-2 [Compound 19a] | >400 µM | – | – | less than 20% | – | toxicity in HEK293 cells (HEK293 kidney cells): some toxicity
26 | CN1C(=O)CN=C(c2ccccc2)c2cc(Cl)ccc21 [diazepam, reference compound] | – | – | – | – | – | sensorimotor impairment on rotarod, positive control (Swiss Webster mice [3]; 5 mg/kg i.p., Swiss Webster mice): greatest impairment of sensorimotor steadiness at 10 minutes
